Experimental data as given in patent publication US9302999B2, “Substituted triazoles as herbicides” (E. I. DU PONT DE NEMOURS AND COMPANY, priority 2012, dated 2016).

Experiments:
Assay type in all cases: in vivo
[1] = tested on: galium (catchweed bedstraw, Galium aparine); assay: Test C pre-/postemergence: galium
Outline: (§1)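 Preemergence on seeds in loam/sand, postemergence on 2–18 cm (1–4-leaf) plants in peat-based medium; compounds in non-phytotoxic solvent with surfactant. After 13–15 days in greenhouse, visual rating versus controls, 0 (no effect) to 100 (complete control).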

[2] = tested on: chickweed (common chickweed, Stellaria media); assay: Test C postemergence: chickweed
Outline: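 Pot-grown plants in peat/vermiculite medium sprayed postemergence at 2–18 cm height (1- to 4-leaf stage). Kept in greenhouse 13 to 15 days, then visually rated against untreated controls on a 0–100 scale (0 = no effect, 100 = complete control).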

[3] = tested on: barnyardgrass (Echinochloa crus-galli); assay: Test A pre-/postemergence: barnyardgrass
Outline: (§2)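 Rating scale 0–100 (100 = complete control), visual, ~10 days after application in the greenhouse. Applications: preemergence directed soil spray; postemergence at 1–2 leaves.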

[4] = tested on: ryegrass, Italian (Italian ryegrass, Lolium multiflorum); assay: Test C pre-/postemergence: ryegrass, Italian
Outline: as §1

[5] = tested on: crabgrass, large (large crabgrass, Digitaria sanguinalis); assay: Test A pre-/postemergence: crabgrass, large
Outline: as §2

[6] = tested on: morningglory (Ipomoea spp.); assay: Test A pre-/postemergence: morningglory
Outline: as §2

[7] = tested on: large crabgrass (Digitaria sanguinalis); assay: Test C pre-/postemergence: large crabgrass
Outline: as §1

[8] = tested on: foxtail, giant (giant foxtail, Setaria faberii); assay: Test A pre-/postemergence: foxtail, giant
Outline: as §2

[9] = tested on: nutsedge, yellow (yellow nutsedge, Cyperus esculentus); assay: Test C pre-/postemergence: nutsedge, yellow
Outline: as §1

[10] = tested on: velvetleaf (Abutilon theophrasti); assay: Test A pre-/postemergence: velvetleaf
Outline: as §2

wild oat (Avena fatua) = assay: Test C pre-/postemergence: wild oat; settings: Postemergence
Outline: as §1

[11] = Postemergence, 31 g ai/ha, scale 0 to 100 (0 no effect, 100 complete control)
[12] = Postemergence, 62 g ai/ha, scale 0 to 100 (0 no effect, 100 complete control)
[13] = Postemergence, 125 g ai/ha, scale 0 to 100, 0 no effect, 100 complete control
[14] = Postemergence, 250 g ai/ha, scale 0 to 100 (0 no effect, 100 complete control)
[15] = Preemergence, 31 g ai/ha, scale 0 (no effect) to 100 (complete control)
[16] = Preemergence, 62 g ai/ha, scale of 0 to 100, 0 is no effect, 100 is complete control
[17] = Preemergence, 125 g ai/ha, scale 0 to 100, 0 no effect, 100 complete control
[18] = Preemergence, 250 g ai/ha, scale 0 to 100, 0 no effect, 100 complete control
[19] = 31 g ai/ha, scale 0 to 100 (0 no effect, 100 complete control)
[20] = 62 g ai/ha, scale 0 to 100 (0 no effect, 100 complete control)
[21] = 125 g ai/ha, scale 0 to 100, 0 no effect, 100 complete control
[22] = Postemergence, 125 g ai/ha, 0 to 100 scale, 0 is no effect, 100 is complete control
[23] = Postemergence, 500 g ai/ha, 0 to 100 scale, 0 is no effect, 100 is complete control
[24] = Preemergence, 125 g ai/ha, 0 to 100 scale where 0 is no effect and 100 is complete control
[25] = Preemergence, 500 g ai/ha, 0 to 100 scale (0 no effect, 100 complete control)
[26] = Postemergence, 250 g ai/ha, scale 0 to 100
[27] = 250 g ai/ha, scale 0 to 100 (0 no effect, 100 complete control)

## CCCc1nn(-c2ccc(F)c(F)c2)nc1Oc1ccnc(C(F)(F)F)c1 [Compound 172]
[1]; [11]
  Plant response rating, Galium: 90
[1]; [12]
  Plant response rating, Galium: 90
[1]; [13]
  Plant response rating, Galium: 90
[1]; [14]
  Plant response rating, Galium: 90
[1]; [15]
  Plant response rating, Galium: 80
[1]; [16]
  Plant response rating, Galium: 100
[1]; [17]
  Plant response rating, Galium: 100
[1]; [18]
  Plant response rating, Galium: 100
[2]; [19]
  Plant response rating, Chickweed: 65
[2]; [20]
  Plant response rating, Chickweed: 85
[2]; [21]
  Plant response rating, Chickweed: 90
[2]; 250 g ai/ha, scale 0 to 100
  Plant response rating, Chickweed: 90
[3]; [22]
  Plant response rating, Barnyardgrass: 90
[3]; [23]
  Barnyardgrass plant response rating: 90
[4]; [11]
  Plant response rating, Ryegrass, Italian: 10
[4]; [12]
  Plant response rating, Ryegrass, Italian: 20
[4]; [13]
  Plant response rating, Ryegrass, Italian: 35
[4]; [14]
  Plant response rating, Ryegrass, Italian: 40
[4]; [15]
  Plant response rating, Ryegrass, Italian: 100
[4]; [16]
  Plant response rating, Ryegrass, Italian: 100
[4]; [17]
  Plant response rating, Ryegrass, Italian: 100
[4]; [18]
  Plant response rating, Ryegrass, Italian: 100
[5]; [22]
  Plant response rating, Crabgrass, Large: 90
[5]; [23]
  Crabgrass, Large plant response rating: 100
[5]; [24]
  Plant response rating, Crabgrass, Large: 100
[5]; [25]
  Plant response rating, Crabgrass, Large: 100
[6]; [22]
  Plant response rating, Morningglory: 100
[6]; [23]
  Morningglory plant response rating: 100
[6]; [24]
  Plant response rating, Morningglory: 60
[6]; [25]
  Plant response rating, Morningglory: 80
[7]; [11]
  Plant response rating, Crabgrass, Large: 20
[7]; [12]
  Plant response rating, Crabgrass, Large: 55
[7]; [13]
  Plant response rating, Crabgrass, Large: 65
[7]; [26]
  Plant response rating, Crabgrass, Large: 95
[7]; [15]
  Plant response rating, Crabgrass, Large: 100
[7]; [16]
  Plant response rating, Crabgrass, Large: 100
[7]; [17]
  Plant response rating, Crabgrass, Large: 100
[7]; [18]
  Plant response rating, Crabgrass, Large: 100
[8]; [22]
  Plant response rating, Foxtail, Giant: 90
[8]; [23]
  Foxtail, Giant plant response rating: 90
[8]; [24]
  Plant response rating, Foxtail, Giant: 100
[8]; [25]
  Plant response rating, Foxtail, Giant: 100
[9]; [11]
  Plant response rating, Nutsedge, Yellow: 10
[9]; [12]
  Plant response rating, Nutsedge, Yellow: 10
[9]; [13]
  Plant response rating, Nutsedge, Yellow: 15
[9]; [14]
  Plant response rating, Nutsedge, Yellow: 15
[9]; [15]
  Plant response rating, Nutsedge, Yellow: 0
[9]; [16]
  Plant response rating, Nutsedge, Yellow: 5
[9]; [17]
  Plant response rating, Nutsedge, Yellow: 5
[9]; [18]
  Plant response rating, Nutsedge, Yellow: 5
[10]; [22]
  Plant response rating, Velvetleaf: 90
[10]; [23]
  Velvetleaf plant response rating: 100
[10]; [24]
  Plant response rating, Velvetleaf: 80
[10]; [25]
  Plant response rating, Velvetleaf: 90
Wild oat (Avena fatua); [19]
  Plant response rating, Oat, Wild: 15
Wild oat (Avena fatua); [20]
  Plant response rating, Oat, Wild: 20
Wild oat (Avena fatua); [21]
  Plant response rating, Oat, Wild: 45
Wild oat (Avena fatua); [27]
  Plant response rating, Oat, Wild: 80

## CCCc1nn(-c2ccc(F)cc2F)nc1Oc1ccnc(C(F)(F)F)c1 [Compound 179]
[1]; [11]
  Plant response rating, Galium: 90
[1]; [12]
  Plant response rating, Galium: 90
[1]; [13]
  Plant response rating, Galium: 90
[1]; [14]
  Plant response rating, Galium: 90
[1]; [15]
  Plant response rating, Galium: 80
[1]; [16]
  Plant response rating, Galium: 100
[1]; [17]
  Plant response rating, Galium: 100
[1]; [18]
  Plant response rating, Galium: 100
[2]; [19]
  Plant response rating, Chickweed: 75
[2]; [20]
  Plant response rating, Chickweed: 80
[2]; [21]
  Plant response rating, Chickweed: 85
[2]; 250 g ai/ha, scale 0 to 100
  Plant response rating, Chickweed: 95
[3]; [22]
  Plant response rating, Barnyardgrass: 90
[3]; [23]
  Barnyardgrass plant response rating: 90
[3]; [24]
  Plant response rating, Barnyardgrass: 90
[3]; [25]
  Plant response rating, Barnyardgrass: 100
[4]; [11]
  Plant response rating, Ryegrass, Italian: 10
[4]; [12]
  Plant response rating, Ryegrass, Italian: 15
[4]; [13]
  Plant response rating, Ryegrass, Italian: 25
[4]; [14]
  Plant response rating, Ryegrass, Italian: 40
[4]; [15]
  Plant response rating, Ryegrass, Italian: 45
[4]; [16]
  Plant response rating, Ryegrass, Italian: 95
[4]; [17]
  Plant response rating, Ryegrass, Italian: 95
[4]; [18]
  Plant response rating, Ryegrass, Italian: 95
[5]; [22]
  Plant response rating, Crabgrass, Large: 90
[5]; [23]
  Crabgrass, Large plant response rating: 90
[5]; [24]
  Plant response rating, Crabgrass, Large: 100
[5]; [25]
  Plant response rating, Crabgrass, Large: 100
[6]; [22]
  Plant response rating, Morningglory: 100
[6]; [23]
  Morningglory plant response rating: 100
[6]; [24]
  Plant response rating, Morningglory: 40
[6]; [25]
  Plant response rating, Morningglory: 70
[7]; [11]
  Plant response rating, Crabgrass, Large: 20
[7]; [12]
  Plant response rating, Crabgrass, Large: 20
[7]; [13]
  Plant response rating, Crabgrass, Large: 35
[7]; [26]
  Plant response rating, Crabgrass, Large: 80
[7]; [15]
  Plant response rating, Crabgrass, Large: 100
[7]; [16]
  Plant response rating, Crabgrass, Large: 100
[7]; [17]
  Plant response rating, Crabgrass, Large: 100
[7]; [18]
  Plant response rating, Crabgrass, Large: 100
[8]; [22]
  Plant response rating, Foxtail, Giant: 90
[8]; [23]
  Foxtail, Giant plant response rating: 90
[8]; [24]
  Plant response rating, Foxtail, Giant: 100
[8]; [25]
  Plant response rating, Foxtail, Giant: 100
[9]; [11]
  Plant response rating, Nutsedge, Yellow: 5
[9]; [12]
  Plant response rating, Nutsedge, Yellow: 5
[9]; [13]
  Plant response rating, Nutsedge, Yellow: 10
[9]; [14]
  Plant response rating, Nutsedge, Yellow: 10
[9]; [15]
  Plant response rating, Nutsedge, Yellow: 0
[9]; [16]
  Plant response rating, Nutsedge, Yellow: 0
[9]; [17]
  Plant response rating, Nutsedge, Yellow: 0
[9]; [18]
  Plant response rating, Nutsedge, Yellow: 5
[10]; [22]
  Plant response rating, Velvetleaf: 90
[10]; [23]
  Velvetleaf plant response rating: 100
[10]; [24]
  Plant response rating, Velvetleaf: 80
[10]; [25]
  Plant response rating, Velvetleaf: 100
Wild oat (Avena fatua); [19]
  Plant response rating, Oat, Wild: 10
Wild oat (Avena fatua); [20]
  Plant response rating, Oat, Wild: 20
Wild oat (Avena fatua); [21]
  Plant response rating, Oat, Wild: 35
Wild oat (Avena fatua); [27]
  Plant response rating, Oat, Wild: 50
